Measured values reported in the supplement of paper PMC11451515.

Assays:
Details in all cases: 48 h
P12-Ichikawa [1] = experiment: AUC of viability dose-response curve (% viability x log10 dose units); higher = less sensitive
Procedure, shortened: (§1)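 Leukemia cells adapted to each medium were seeded at 500 or 1000 cells/well in 1536-well plates and dosed with library compounds in DMSO at 11 threefold doses from 47 μM to 0.79 nM for 48 h at 37°C. CellTiter-Glo One luminescence was normalised per plate to DMSO and cell-free wells, then fitted with a four-parameter log-logistic model over log10 doses. Area under the curve was taken from this fit by the trapezoidal rule, with curves above full viability scaled and curves failing quality control removed.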

NOMO1 [2] = experiment: as above
Procedure, shortened: as §1

SEM cells [3] = experiment: as above
Procedure, shortened: as §1

SEM cells [4] = experiment: cell viability relative to DMSO control; higher = less cytotoxic
Procedure, shortened: (§2)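 Viability was expressed as a per-plate percentage of DMSO wells, with cell-free wells as background. Leukemia cells (NOMO1 or SEM at 500 cells/well, P12-Ichikawa at 1000 cells/well) were adapted for at least four passages in each medium and seeded in 1536-well plates (5 μl). Library compounds in DMSO were pin-dosed over an 11-point threefold series from 47 μM to 0.79 nM, and CellTiter-Glo One luminescence was read after 48 h at 37°C.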

P12-Ichikawa [5] = experiment: as above
Procedure, shortened: as §2

NOMO1 [6] = experiment: as above
Procedure, shortened: as §2

COc1ccccc1N1CCN(CCN(C(=O)C2CCCCC2)c2ccccn2)CC1
AUC of viability dose-response curve
Details | NOMO1 [2] | P12-Ichikawa [1] | SEM cells [3]
HPLM + 10% dialyzed FBS | 466 | 470 | 468
RPMI 5 mM glucose + 10% FBS | 469 | 472 | 467
RPMI 5 mM glucose + 10% dialyzed FBS | 468 | 473 | 472

cell viability [%], SEM cells [4]
Details | HPLM + 10% dialyzed FBS | RPMI 5 mM glucose + 10% FBS
0.000781 µM | 97.9 | 104
0.00234 µM | 121 | 111
0.00702 µM | 122 | 131
0.0211 µM | 112 | 123
0.0632 µM | 122 | 124
0.19 µM | 120 | 135
0.569 µM | 137 | 132
1.71 µM | 133 | 131
5.12 µM | 127 | 130
15.4 µM | 122 | 111
46.1 µM | 122 | 126

CCN(CC)C(=O)C1=CC=C(C=C1)C/2=C/C3(CCNCC3)OC4=CC=CC(=C24)O
AUC of viability dose-response curve
Details | NOMO1 [2] | P12-Ichikawa [1] | SEM cells [3]
HPLM + 10% dialyzed FBS | 287 | 459 | 472
RPMI 5 mM glucose + 10% FBS | 329 | 449 | 464
RPMI 5 mM glucose + 10% dialyzed FBS | 345 | 449 | 464

CO/N=C(/C(=O)N[C@@H]1C(=O)N2C(C(=O)O)=C(CSC(=O)c3ccco3)CS[C@H]12)c1csc(N)n1
AUC of viability dose-response curve
Details | HPLM + 10% dialyzed FBS | RPMI 5 mM glucose + 10% FBS | RPMI 5 mM glucose + 10% dialyzed FBS
NOMO1 [2] | 413 | 453 | 449
P12-Ichikawa [1] | 472 | 464 | 476

cell viability [%]
Details | NOMO1 [6] | P12-Ichikawa [5] | SEM cells [4]
HPLM + 10% dialyzed FBS, 0.000781 µM | 81.5 | 100 | 62.8
HPLM + 10% dialyzed FBS, 0.00234 µM | 106 | 108 | 72.5
HPLM + 10% dialyzed FBS, 0.00702 µM | 116 | 112 | 71.3
HPLM + 10% dialyzed FBS, 0.0211 µM | 102 | 119 | 68.5
HPLM + 10% dialyzed FBS, 0.0632 µM | 113 | 109 | 77.7
HPLM + 10% dialyzed FBS, 0.19 µM | 103 | 111 | 76.5
HPLM + 10% dialyzed FBS, 0.569 µM | 109 | 116 | 82.3
HPLM + 10% dialyzed FBS, 1.71 µM | 85.5 | 118 | 77.6
HPLM + 10% dialyzed FBS, 5.12 µM | 64.8 | 113 | 76.9
HPLM + 10% dialyzed FBS, 15.4 µM | 53 | 109 | 88.4
HPLM + 10% dialyzed FBS, 46.1 µM | 48.8 | 110 | 74.8
RPMI 5 mM glucose + 10% FBS, 0.000781 µM | 89.4 | 98.1 | 77.5
RPMI 5 mM glucose + 10% FBS, 0.00234 µM | 104 | 100 | 86.9
RPMI 5 mM glucose + 10% FBS, 0.00702 µM | 99.4 | 117 | 89.6
RPMI 5 mM glucose + 10% FBS, 0.0211 µM | 98.6 | 107 | 91.3
RPMI 5 mM glucose + 10% FBS, 0.0632 µM | 103 | 105 | 97.8
RPMI 5 mM glucose + 10% FBS, 0.19 µM | 103 | 106 | 102
RPMI 5 mM glucose + 10% FBS, 0.569 µM | 109 | 98.6 | 106
RPMI 5 mM glucose + 10% FBS, 1.71 µM | 92.5 | 104 | 105
RPMI 5 mM glucose + 10% FBS, 5.12 µM | 90.9 | 98.9 | 90.6
RPMI 5 mM glucose + 10% FBS, 15.4 µM | 73.8 | 103 | 108
RPMI 5 mM glucose + 10% FBS, 46.1 µM | 77.2 | 96.2 | 103
RPMI 5 mM glucose + 10% dialyzed FBS, 0.000781 µM | 82.9 | 95.6 | 89.1
RPMI 5 mM glucose + 10% dialyzed FBS, 0.00234 µM | 97.4 | 104 | 93.8
RPMI 5 mM glucose + 10% dialyzed FBS, 0.00702 µM | 99.9 | 112 | 107
RPMI 5 mM glucose + 10% dialyzed FBS, 0.0211 µM | 111 | 108 | 117
RPMI 5 mM glucose + 10% dialyzed FBS, 0.0632 µM | 104 | 112 | 93
RPMI 5 mM glucose + 10% dialyzed FBS, 0.19 µM | 101 | 109 | 107
RPMI 5 mM glucose + 10% dialyzed FBS, 0.569 µM | 111 | 104 | 118
RPMI 5 mM glucose + 10% dialyzed FBS, 1.71 µM | 103 | 103 | 111
RPMI 5 mM glucose + 10% dialyzed FBS, 5.12 µM | 82.5 | 102 | 120
RPMI 5 mM glucose + 10% dialyzed FBS, 15.4 µM | 81.3 | 107 | 123
RPMI 5 mM glucose + 10% dialyzed FBS, 46.1 µM | 58.5 | 104 | 113
